Where a SMILES comes first, the peptide text is derived from it.
Tests used:
[1] = system: chemokine (C-X-C motif) ligand 7 (CXCL7); assay: CXCL7 ELISA in deep bronchial brushings (DBB); format: in vivo, human; settings: for CXCL7 in DBB, Δ from baseline, median (IQR): Day 14 minus screening, N = 8; for CXCL7 in DBB, median difference vs placebo (Hodges-Lehmann): N = 8 vs pooled placebo N = 6
Source text: (§1) Bronchoscopists were instructed to obtain a total of 6 brushings from 3 of the basilar bronchial segments of the right lower lobe: the anterior basilar segment, the lateral basilar segment, and the posterior basilar segment. With the bronchoscope proximal to or within the orifice of the appropriate basilar segment, the brush sheath was to be passed out 5 cm beyond the subsegment orifice, and then the brush was fully extended an additional 1 cm for a total of 6 cm beyond the orifice of the subsegmental bronchus. At the desired depth, the sheath was to be gently pulled back and forward for 15 strokes to brush the small airways. The brushing process was repeated using any combination of the 3 basilar segments described above, at the discretion of the bronchoscopist, for a total of 6 six separate brush samples.
(§2) Protein isolation and preparation of DBB samples for ELISAs were performed as previously described[47] according to manufacturer’s instructions for COL1A1 (#ab210966, abcam), CXCL7 (#LS-F4967-1, LS Bio), GAL7 (#DY1339, R&D Systems), IL-11 (#DY218, R&D Systems), and TSLP (#DY1398, R&D Systems).
(§3) Descriptive statistics are reported as medians with interquartile ranges (IQR). The Hodges-Lehmann estimator was used for the median difference between groups (treatment minus placebo), with approximate 90% confidence intervals (asymmetric, exact level varied slightly with small n). Cliff’s delta was calculated as effect size using the formula δ = (2U / (n1 × n2)) − 1, with thresholds: |δ | <0.3 small effect, 0.3–0.5 medium effect, >0.5 large effect. […] No adjustment for multiplicity was performed, as these were pre-specified, hypothesis-driven exploratory analyses. All biomarker statistical analyses were conducted using GraphPad Prism Version v10.0.

[2] = protocol, section 1.1.1.1; cited from earlier work
Source text: […]. "Antifibrotic therapy for idiopathic pulmonary fibrosis: time to treat." Respiratory research 20.1 (2019) ...

[3] = system: interleukin 11 (IL-11); assay: IL-11 ELISA in deep bronchial brushings (DBB); format: in vivo, human; settings: for IL-11 in DBB, Δ from baseline, median (IQR): Day 14 minus screening
Source text: as §1, §2, §3

SMILES: CC(C)[C@H](NC(=O)[C@@H](NC(=O)[C@H](Cc1ccccc1)NC(=O)[C@@H](NC(=O)[C@@H](NC(=O)[C@@H](N)Cc1ccccc1)[C@@H](C)O)[C@@H](C)O)[C@@H](C)O)C(=O)N[C@H](C(=O)O)[C@@H](C)O [LTI-03] (H-FTTFTVT-OH; N-terminus and C-terminus assumed)
- CXCL7 in DBB, Δ from baseline, median (IQR) ([1]; 5 mg/day): −100.2 ng/mg protein
- CXCL7 in DBB, median difference vs placebo (Hodges-Lehmann) ([1]; 5 mg/day, one-tailed Mann-Whitney p = 0.5): 8.265 ng/mg protein
- CXCL7 in DBB, Δ from baseline, median (IQR) ([1]; 10 mg/day): −1276.23 ng/mg protein
- CXCL7 in DBB, median difference vs placebo (Hodges-Lehmann) ([1]; 10 mg/day, one-tailed Mann-Whitney p = 0.0248): −1262 ng/mg protein
- solubility in water [2]: limited solubility
- IL-11 in DBB, Δ from baseline, median (IQR) ([3]; 5 mg/day, N = 8): −11.037 pg/mg protein
- IL-11 in DBB, median difference vs placebo (Hodges-Lehmann) ([3]; 5 mg/day, N = 8 vs pooled placebo N = 6, one-tailed Mann-Whitney p = 0.0406): −21.71 pg/mg protein
- IL-11 in DBB, Δ from baseline, median (IQR) ([3]; 10 mg/day, N = 9): −6.528 pg/mg protein
- IL-11 in DBB, median difference vs placebo (Hodges-Lehmann) ([3]; 10 mg/day, N = 9 vs pooled placebo N = 6, one-tailed Mann-Whitney p = 0.044): −19.15 pg/mg protein

From article PMC13427755 (Nature Communications, 2026)
